Measurements published in patent publication EP4700040A1, “PEPTIDE AND LUMINESCENT COMPLEX CONTAINING SAME” (Shenzhen Loggene Life Science & Technology Co., Ltd., priority 2023, dated 2024).

Legend:
PCT [1] = experiment: Complementary activity of small subunits mutated at conserved positions, Furimazine substrate (Example 6); format: biochemical, human; conditions: MBP-PCT 3.3 ng/ml, supernatant
Experimental: Detection Methods: • (1) The concentration of large subunit-rSCFV5 fusion protein was diluted to 12.5 nM, and 15 µl was added per well; • (2) MBP-PCT fusion protein was diluted to 3.3 ng/ml with PBSAD, and 10 µl was added per well; • (3) HB2151 strain containing plasmids with different small subunit sequences were induced by IPTG at 30°C overnight, then treated with polymyxin B for 1.5h, and centrifuged to collect the supernatant, and 2.5µl supernatant was added per well; • (4) The above three components were slightly mixed, incubated at 37°C for 7 min, and Obuffer 6.37-3 containing Furimazine at a concentration of 25 µM was added, […], the luminescence signal value was detected using a bioluminescence detector; and • (5) Clones with RLU higher than 10,000 were picked. The substrate was replaced with CTZ-h substrate for retesting (Obuffer 6.37-3 containing CTZ-h at a concentration of 25 µM was added, and after 60 s, the luminescence signal value was detected using a bioluminescence detector), and a PBSAD control was added to test the signal-to-noise ratio.
In order to further determine whether these three conserved amino acid sequences were changed, this example constructed a random mutation library of these three positions, with a theoretical diversity of 8,000 and a library capacity of 10^6, and 2,000 single clones were picked. The method of protein induction and expression was the same as that in Example 1. The complementary activity was tested in the same manner as that in Example 4, but the signal-to-noise ratio was not retested with CTZ-h. Clones with different activity were randomly picked for sequencing.

[2] = tested on: human interleukin 6 (human IL6); experiment: Luciferase dual-antibody complementary activation assay for human IL6 (Example 7); format: biochemical; conditions: estimated by ((mean+3SD)-RLU0.5)/(RLU5-RLU0.5)*4.5+0.5
From the text: Expression and purification of human IL6 recombinant protein: An expression vector of human IL6 (UniProtKB ID: P05231, AA29~212) with six histidine-tagged (C-terminal) fusion proteins (SEQ ID NO: 90) was constructed. The fusion protein was recombinantly expressed in E. coli, and purified with nickel column. The protein purity was detected by denaturing SDS-polyacrylamide gel electrophoresis, and the protein concentration was detected by nucleic acid-protein quantification instrument.
Expression and purification of a fusion protein of the small and large subunits with IL6 antibody: prokaryotic expression plasmids of the fusion protein RB073-449-1 (SEQ ID NO: 91) of the small subunit peptide RB073 with human IL6 SCFV antibody 449-1, and the fusion protein OL-453 (SEQ ID NO: 92) of the large subunit with human IL6 SCFV antibody 453 were constructed. The fusion proteins were recombinantly expressed in E. coli, and purified with nickel column. The protein purity was detected by denaturing SDS-polyacrylamide gel electrophoresis, and the protein concentration was detected by nucleic acid-protein quantification instrument.
Test Methods • (1) Recombinant human IL6 protein was diluted with PBSA in 10-fold gradient starting from 5000 pg/ml, with 5 gradients in total. […]

PCT [3] = experiment: Second library screening for PCT detection, clone supernatants, retest with CTZ-h (Example 4); format: biochemical, human
Experimental: In order to further improve the signal-to-noise ratio and complementary activity of the luciferase dual-antibody complementary activation assay, novel complementary luciferase small subunits were prepared in this example. Large subunit-rSCFV5 fusion protein (SEQ ID NO: 87) was kept unchanged, and the small subunit sequence of the rSCFV18-RB073 fusion protein (SEQ ID NO: 89) were modified by semi-randomization. The theoretical diversity was 6912, the library capacity was 10^6, and 3,000 single clones were picked. The method of protein induction and expression was the same as that in Example 2.
Detection Methods: • (1) The concentration of large subunit-rSCFV5 fusion protein was diluted to 12.5 nM, and 15 µl was added per well; • (2) MBP-PCT fusion protein was diluted to 3.3 ng/ml with PBSAD, and 10 µl was added per well; • (3) HB2151 strain containing plasmids with different small subunit sequences were induced by IPTG at 30°C overnight, then treated with polymyxin B for 1.5h, and centrifuged to collect the supernatant, and 2.5µl supernatant was added per well; • (4) The above three components were slightly mixed, incubated at 37°C for 7 min, and Obuffer 6.37-3 containing Furimazine at a concentration of 25 µM was added, and after 3 min, the luminescence signal value was detected using a bioluminescence detector; and • (5) Clones with RLU higher than 10,000 were picked. The substrate was replaced with CTZ-h substrate for retesting (Obuffer 6.37-3 containing CTZ-h at a concentration of 25 µM was added, and after 60 s, the luminescence signal value was detected using a bioluminescence detector), and a PBSAD control was added to test the signal-to-noise ratio.

PCT [4] = experiment: Sensitivity and linear range for PCT detection of preferred small subunits (Example 5); format: biochemical, human; conditions: for luminescence value: normalized
Experimental: Detection Methods: • (1) The concentration of large subunit-rSCFV5 fusion protein was diluted with PBSA to 8.3~25nM, and 15µl was added per well; • (2) MBP-PCT fusion proteins were diluted with PBSAD in a downward gradient starting from 2.5 µg/ml, and 10 µl was added per well; • (3) The rSCFV18-small subunit mutant-containing fusion protein was diluted with PBSA to 30~180 nM, and 15 µl was added per well; • (4) The above three components were slightly mixed, incubated at 37°C for 15 min, and Obuffer 6.37-3 containing CTZ-h at a concentration of 15 µM was added, and the luminescence signal value was immediately detected using a bioluminescence detector (the luminescence value was normalized);

VEGYRLFDRKS [RB073]
activity (luminescence signal value), 3 min (PCT [1]; 3 min after Furimazine 25 µM): 46672 | activity (luminescence signal value), 6 min (PCT [1]; 6 min after Furimazine 25 µM): 32973 | LLD (low limit of detection) [2]: 0.79 pg/mL

VTGYRLFEEIL [P114, reference compound]
Signal-to-noise ratio (PCT [3]; PCT+/PCT-, MBP-PCT 3.3 ng/ml, CTZ-h): 1.9 | PCT+ (PCT [3]; luminescence signal value with MBP-PCT 3.3 ng/ml, large subunit-rSCFV5 12.5 nM, CTZ-h 25 µM, 60 s): 1493 | PCT- (PCT [3]; luminescence signal value, PBSAD control without PCT, large subunit-rSCFV5 12.5 nM, CTZ-h 25 µM, 60 s): 786 | luminescence value (PCT [4]; PCT 0.0, background): 5000 | luminescence value (PCT [4]; PCT 1 (pg/ml)): 5324 | luminescence value (PCT [4]; PCT 3 (pg/ml)): 5403 | luminescence value (PCT [4]; PCT 10 (pg/ml)): 5314 | luminescence value (PCT [4]; PCT 30 (pg/ml)): 5724 | luminescence value (PCT [4]; PCT 100 (pg/ml)): 5429 | luminescence value (PCT [4]; PCT 1000 (pg/ml)): 18939 | luminescence value (PCT [4]; PCT 10000 (pg/ml)): 99257 | luminescence value (PCT [4]; PCT 100000 (pg/ml)): 804042 | luminescence value (PCT [4]; PCT 250000 (pg/ml)): 1431884 | Signal-to-noise ratio at 1000 pg/ml (PCT [4]; large subunit 8.3~25 nM, small subunit fusion 30~180 nM, CTZ-h 15 µM): 3.8
